One assay concerns the target T1, human DP1 receptor (Homo sapiens, UniProt Q13258).
T1 construct: tissue Biological Specialty Corporation; host or cells: human platelets, membrane preparation
T1 sequence (Q13258 1-359): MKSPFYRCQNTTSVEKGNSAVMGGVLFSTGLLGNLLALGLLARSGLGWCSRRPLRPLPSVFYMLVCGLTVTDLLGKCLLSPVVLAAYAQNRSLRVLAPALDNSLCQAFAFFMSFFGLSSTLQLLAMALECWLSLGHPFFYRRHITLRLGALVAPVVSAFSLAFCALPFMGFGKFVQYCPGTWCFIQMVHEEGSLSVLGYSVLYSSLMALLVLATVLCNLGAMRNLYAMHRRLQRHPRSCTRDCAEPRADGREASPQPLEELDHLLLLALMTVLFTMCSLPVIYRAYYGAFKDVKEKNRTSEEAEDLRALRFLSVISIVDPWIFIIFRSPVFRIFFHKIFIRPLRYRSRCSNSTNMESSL
The experiment in a line: DP1 radioligand membrane binding assay ([3H]BWA868C). The note with it: human platelet membranes, 2 nM [3H]BWA868C; read-out: hDP1. On the procedure: The ability of a compound to bind to the human DP1 receptor was evaluated via a radioligand membrane binding assay using the DP1 selective synthetic ligand [^3H]BWA868C. Packed human platelets (Biological Specialty Corporation), were resuspended in 6 volumes of Hepes/HBSS buffer (10 mM Hepes, 1 mM DTT in Hanks Balanced Salt Solution (HBSS), lysed and centrifuged at 75,000×g to pellet the membranes. Membranes were resuspended in Hepes/HBSS buffer to approximately 12 mg protein/ml. Membranes (20 μg protein/well) are incubated in 96-well plates with 2 nM [^3H]BWA868C and test compound in Assay Buffer (50 mM Hepes, 10 mM MnCl2, 1 mM EDTA, plus or minus 0.2% human serum albumin, pH 7.4) for 60 minutes at room temperature. The reactions are terminated by rapid filtration through Whatman GF/C glass fibre filter plates. The filter plates were pre-soaked in 0.33% polyethylenimine for 30 minutes at room temperature then washed in Wash Buffer (50 mM Hepes, 0.5 M NaCl pH 7.4) prior to harvesting. After harvesting, the filter plates are washed 3 times with 1 ml cold Wash Buffer then dried. Scintillant is then added to the plates and the radioactivity retained on the filters is determined on a Packard TopCount (Perkin Elmer). Specific binding is determined as total radioactive binding minus non-specific binding in the presence of 10 μM BW A868C. IC50s were determined using GraphPad prism analysis of drug titration curves.

The next assay deals with T2, human DP2 receptor (Homo sapiens, UniProt Q9Y5Y4).
T2 construct: expressed in transfected cells
T2 sequence (Q9Y5Y4 1-395): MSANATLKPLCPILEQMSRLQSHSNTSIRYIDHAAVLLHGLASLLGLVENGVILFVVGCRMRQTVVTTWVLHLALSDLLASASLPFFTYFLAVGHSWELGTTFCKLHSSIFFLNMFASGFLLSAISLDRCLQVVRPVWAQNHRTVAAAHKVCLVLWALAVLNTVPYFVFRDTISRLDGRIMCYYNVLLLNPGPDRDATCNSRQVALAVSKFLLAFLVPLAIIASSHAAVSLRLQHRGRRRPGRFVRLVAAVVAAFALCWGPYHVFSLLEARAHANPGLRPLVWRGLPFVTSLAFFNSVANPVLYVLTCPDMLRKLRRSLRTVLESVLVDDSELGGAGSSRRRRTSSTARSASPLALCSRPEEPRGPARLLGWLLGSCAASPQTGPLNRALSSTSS
Briefly: DP2/CRTH2 radioligand binding assay ([3H]PGD2). Conditions: membranes of HEK293 cells expressing recombinant human DP2, 1 nM [3H]PGD2; read-out: hDP2. Here is the method:
The ability of a compound to bind to the human DP2 receptor is assessed via a radioligand binding assay using [^3H]PGD2. HEK293 cells stably expressing recombinant human DP2 are resuspended in 10 mM Hepes, 7.4 containing 1 mM DTT, lysed and centrifuged at 75,000×g to pellet the membranes. The membranes are resuspended in 10 mM Hepes, 7.4 containing 1 mM DTF and 10% glycerol to approximately 5 mg protein/ml. Membranes (2-10 […]) are incubated in 96-well plates with 1 nM [^3H]PGD2 and test compound in Assay Buffer (50 mM Hepes, 10 mM MnCl2, 1 mM EDTA, plus or minus 0.2% human serum albumin, pH 7.4) for 60 minutes at room temperature. The reactions are terminated by rapid filtration through Whatman GF/C glass fibre filter plates. The filter plates were pre-soaked in 0.33% polythylenimine for 30 minutes at room temperature then washed in Wash Buffer (50 mM Hepes, 0.5 M NaCl pH 7.4) prior to harvesting. After harvesting, the filter plates are washed 3 times with 1 ml cold Wash Buffer then dried. Scintillant is then added to the plates and the radioactivity retained on the filters is determined on a Packard TopCount (Perkin Elmer). Specific binding is determined as total radioactive binding minus non-specific binding in the presence of 10 μM PGD2. IC50s were determined using GraphPad prism analysis of drug titration curves.

A value given as a limit tells only on which side of the number the result lay.

In the case of `COc1ccc(CC(=O)O)cc1Oc1ccc(C(F)(F)F)cc1CSC(C)(C)C` [Compound 1-3, [3-(2-tert-Butylsulfanylmethyl-4-trifluoromethyl-phenoxy)-4-methoxy-phenyl]-acetic acid], the IC50 at human DP1 receptor is more than 1000 nM; at human DP2 receptor, 300 to 1000 nM. With `O=C(O)Cc1cccc(Oc2ccc(Br)cc2C[S+]([O-])c2ccccc2)c1` (stereo not shown) [Compound 1-28, [3-(2-Benzenesulfinylmethyl-4-bromo-phenoxy)-phenyl]-acetic acid], the IC50 at human DP1 receptor is more than 1000 nM; at human DP2 receptor it was less than 300 nM. Taken in the same sequence, the figures for `COc1ccc(CC(=O)O)cc1Oc1ccc(C(F)(F)F)cc1CSc1ccccc1` [Compound 1-4, [4-Methoxy-3-(2-phenylsulfanylmethyl-4-trifluoromethyl-phenoxy)-phenyl]-acetic acid] were more than 1000 nM and less than 300 nM.

Consider `O=C(O)Cc1cccc(Oc2ccc(Br)cc2CS(=O)(=O)c2ccccn2)c1` [Compound 1-23, {3-[4-Bromo-2-(pyridine-2-sulfonylmethyl)-phenoxy]-phenyl}-acetic acid], for which the IC50 at human DP1 receptor was more than 1000 nM; at human DP2 receptor it was 300 to 1000 nM. For the compound `O=C(O)Cc1cccc(Oc2ccc(Br)cc2C[S+]([O-])CC(=O)O)c1` (stereo not shown) [Compound 1-36, [3-(4-Bromo-2-carboxymethanesulfinylmethyl-phenoxy)-phenyl]-acetic acid], the IC50 at human DP1 receptor and on human DP2 receptor was more than 1000 nM in each case. With `O=C(O)Cc1cccc(Oc2ccc(Br)cc2CSc2nccs2)c1` [Compound 1-14, {3-[4-Bromo-2-(thiazol-2-ylsulfanylmethyl)-phenoxy]-phenyl}-acetic acid], the IC50 on human DP1 receptor is 300 to 1000 nM; at human DP2 receptor, less than 300 nM. In the case of `COc1ccc(CC(=O)O)cc1Oc1ccc(C(F)(F)F)cc1CS(=O)(=O)CCc1ccccc1` [Compound 1-5, {4-Methoxy-3-[2-(2-phenyl-ethanesulfonylmethyl)-4-trifluoromethyl-phenoxy]-phenyl}-acetic acid], the IC50 is more than 1000 nM at human DP1 receptor and less than 300 nM at human DP2 receptor. For `CS(=O)(=O)c1ccc(-c2ccc(Oc3cccc(CC(=O)O)c3)c(CSc3ccccc3)c2)cc1` [Compound 1-58, [3-(4′-Methanesulfonyl-3-phenylsulfanylmethyl-biphenyl-4-yloxy)-phenyl]-acetic acid] the same measures were less than 300 nM and 300 to 1000 nM. On to `COc1ccc(CC(=O)O)cc1Oc1ccc(C(F)(F)F)cc1C[S+]([O-])CCc1ccccc1` (stereo not shown) [Compound 1-8, {4-Methoxy-3-[2-(2-phenyl-ethanesulfinylmethyl)-4-trifluoromethyl-phenoxy]-phenyl}-acetic acid], for which the IC50 at human DP1 receptor is more than 1000 nM; on human DP2 receptor, less than 300 nM. For the compound `O=C(O)Cc1cccc(Oc2ccc(Br)cc2CSCCc2ccccc2)c1` [Compound 1-13, [3-(4-Bromo-2-phenethylsulfanylmethyl-phenoxy)-phenyl]-acetic acid], the IC50 on human DP1 receptor and on human DP2 receptor was less than 300 nM each time. On to `COc1ccc(CC(=O)O)cc1Oc1ccc(Cl)cc1C[S+]([O-])Cc1ccccc1` (stereo not shown) [Compound 1-55, [3-(4-Chloro-2-phenylmethanesulfinylmethyl-phenoxy)-4-methoxyphenyl]-acetic acid], for which the IC50 at human DP1 receptor is more than 1000 nM; at human DP2 receptor, 300 to 1000 nM. Taken in the same sequence, the figures for `O=C(O)Cc1cccc(Oc2ccc(Br)cc2C[S+]([O-])CCc2ccccc2)c1` (stereo not shown) [Compound 1-30, {3-[4-Bromo-2-(2-phenyl-ethanesulfinylmethyl)-phenoxy]-phenyl}-acetic acid] were more than 1000 nM and less than 300 nM. With `COc1ccc(CC(=O)O)cc1Oc1ccc(NS(=O)(=O)c2cccc3c(N(C)C)cccc23)cc1CSC(C)(C)C` [Compound 1-119, {3-[2-tert-Butylsulfanylmethyl-4-(5-dimethylamino-naphthalene-1-sulfonylamino)-phenoxy]-4-methoxy-phenyl}-acetic acid], the IC50 at human DP2 receptor is less than 300 nM.

`O=C(O)Cc1cccc(Oc2ccc(Br)cc2C[S+]([O-])c2ccccn2)c1` (stereo not shown) [Compound 1-31, {3-[4-Bromo-2-(pyridine-2-sulfinylmethyl)-phenoxy]-phenyl}-acetic acid]: the IC50 at human DP1 receptor and on human DP2 receptor was more than 1000 nM each time.

On to `O=C(O)Cc1cccc(Oc2ccc(Br)cc2CS(=O)(=O)c2ccc3ccccc3n2)c1` [Compound 1-24, {3-[4-Bromo-2-(quinoline-2-sulfonylmethyl)-phenoxy]-phenyl}-acetic acid], for which the IC50 on human DP1 receptor and at human DP2 receptor was more than 1000 nM throughout.

Consider `Cn1cc(-c2ccc(Oc3cccc(CC(=O)O)c3)c(CSc3ccccc3)c2)cn1` [Compound 1-57, {3-[4-(1-Methyl-1H-pyrazol-4-yl)-2-phenylsulfanylmethyl-phenoxy]-phenyl}-acetic acid], for which the IC50 was more than 1000 nM at human DP1 receptor and 300 to 1000 nM at human DP2 receptor. Taken in the same sequence, the figures for `CN(C)CC[S+]([O-])Cc1cc(Br)ccc1Oc1cccc(CC(=O)O)c1` (stereo not shown) [Compound 1-35, {3-[4-Bromo-2-(2-dimethylamino-ethanesulfinylmethyl)-phenoxy]-phenyl}-acetic acid] were more than 1000 nM and more than 1000 nM. On to `COc1ccc(CC(=O)O)cc1Cc1ccc(NC(=O)C(C)(C)C)cc1CSC(C)(C)C` [Compound 1-107, {3-[2-tert-Butylsulfanylmethyl-4-(2,2-dimethyl-propionylamino)-benzyl]-4-methoxy-phenyl}-acetic acid], for which the IC50 on human DP2 receptor is less than 300 nM. In the case of `O=C(O)Cc1cccc(Oc2ccc(Br)cc2CS(=O)(=O)c2nccs2)c1` [Compound 1-25, {3-[4-Bromo-2-(thiazole-2-sulfonylmethyl)-phenoxy]-phenyl}-acetic acid], the figures for the IC50 at human DP1 receptor and on human DP2 receptor were more than 1000 nM and 300 to 1000 nM, respectively. As for `COc1ccc(CC(=O)O)cc1Oc1ccc(C(=O)c2ccccc2)cc1CSC(C)C` [Compound 1-83, [3-(4-Benzoyl-2-isopropylsulfanylmethyl-phenoxy)-4-methoxy-phenyl]-acetic acid], the IC50 at human DP2 receptor was less than 300 nM. For the compound `COc1ccc(CC(=O)O)cc1Oc1ccc(NC(=O)C(C)(C)C)cc1COc1ccccc1` [Compound 1-118, {3-[4-(2,2-Dimethyl-propionylamino)-2-phenoxymethyl-phenoxy]-4-methoxy-phenyl}-acetic acid], the IC50 on human DP2 receptor is 300 to 1000 nM. On to `COc1ccc(CC(=O)O)cc1Oc1ccc(-c2cnn(C)c2)cc1CS(=O)(=O)C(C)C` [Compound 1-64, {4-Methoxy-3-[4-(1-methyl-1H-pyrazol-4-yl)-2-(propane-2-sulfonylmethyl)-phenoxy]-phenyl}-acetic acid], for which the IC50 at human DP2 receptor lay in the range of 300 to 1000 nM. Consider `COc1ccc(CC(=O)O)cc1Oc1ccc(-c2cnn(C)c2)cc1CSC(C)C` [Compound 1-63, {3-[2-Isopropylsulfanylmethyl-4-(1-methyl-1H-pyrazol-4-yl)-phenoxy]-4-methoxy-phenyl}-acetic acid], for which, on human DP2 receptor, the IC50 is less than 300 nM.

Source of the values: patent publication US20110190227A1, “Antagonists of Prostaglandin D2 Receptors” (Amira Pharmaceuticals, Inc., priority 2008, published 2011).
